Laboratory results from patent US8815811B2, “Peptides and methods for their preparation and use” (Eli Lilly and Company, priority 2010, dated 2014).
Where no end group is shown, it is not given here. [ ]: non-standard residue; d: D form. 1Nal = N[C@@H](Cc1cccc2ccccc12)C(=O)O; Aib = CC(C)(N)C(=O)O

Tested on: diet-induced obese Long Evans rats
Test: Effects on food intake, body weight, body composition and plasma lipids in DIO Long Evans rats
Type: in vivo
Method: Four to five months old male diet-induced obese Long Evans rats are used. Animals are individually housed in a temperature-controlled (24° C.) facility with a 12 hour light/dark cycle (lights on 22:00), and have free access to food (diet TD95217) and water. Animals are acclimated to the facility for at least 2 weeks. On day 0, body composition is determined by QNMR and rats are randomized to respective groups (n=6/group) based on body weight, % fat, and % lean mass. Compound is administered by subcutaneous injection on days 1, 4, 8, 11, and 15. […] After CO2 euthanasia, blood samples are taken by cardiac stick for analysis of exposure determination.

## Aib^2, Aib^13, Nal^22, Aib^29, Cys^43(PEG20K), Cys^44 (PEG20K)-GIP (Y[Aib]EGTFTSDYSI[Aib]LDKIAQRA[1Nal]VQWLIA[Aib]KGKKQEWKHQITQC(PEG 20 kDa)C(PEG 20 kDa)-NH2) [Example 4]
10 nmol/Kg
  total cholesterol (plasma): 110 mg/dL
  triglycerides (plasma): 488.7 mg/dL
30 nmol/Kg
  free fatty acids (plasma): 0.82 mEq/L
  total cholesterol (plasma): 104 mg/dL
  triglycerides (plasma): 212.2 mg/dL
30 nmol/Kg over 16 days
  fat mass reduced: 1.8%
  lean mass increased: 0.4%
100 nmol/Kg over 16 days
  fat mass reduced: 3.2%
  lean mass increased: 1.8%
Over 16 days
  changes in body weight and body composition compared to vehicle-treated DIO rats: increasing the percentage of lean mass and decreasing the percentage of fat mass
Versus vehicle
  amount of free fatty acids: increased
  amounts of plasma lipids, including triglycerides and total cholesterol: lowered
